According to patent publication US10626115B2, “Fused pyrimidinone and triazinone derivatives containing bridged nitrogen, their process of preparation and their therapeutic uses as antifungal and/or antiparasitic agents” (UNIVERSITE DE NANTES, priority 2015, dated 2020):
≈ marks a conversion by molar mass, not a printed value.

Assays:
[1] = test system: fluconazole-susceptible C. albicans strain: CAAL93; assay: Antifungal susceptibility, spectrofluorimetric microdilution, CAAL93; format: cell-based; conditions: Candida albicans, read-out: MIC values CAAL93
Experimental: (§1) Eight strains of Candida spp. with various azoles-susceptibilities were used: • One fluconazole-susceptible C. albicans strain: CAAL93 • Two fluconazole-resistant C. albicans strains: CAAL111 (efflux pump) and CAAL117 (erg11 mutations+voriconazole-resistant) • five fluconazole-resistant Candida non albicans strains: C. krusei (CAKR7, CAKR8), C. glabrata (CAGL2), C. parapsilosis s.l. (CAPA1, CAPA2).
(§2) Antifungal susceptibility was evaluated with a spectrofluorimetric microdilution method.

[2] = test system: fluconazole-resistant C. albicans strain CAAL111 (efflux pump); assay: microbe, parasite or virus in culture; format: cell-based; conditions: Candida albicans, read-out: MIC values CAAL111
Experimental: as §1, §2

[3] = test system: fluconazole-resistant C. glabrata (CAGL2); assay: microbe, parasite or virus in culture; format: cell-based; conditions: Nakaseomyces glabratus, read-out: MIC values CAGL2
Experimental: as §1, §2

[4] = test system: fluconazole-resistant C. krusei (CAKR7); assay: microbe, parasite or virus in culture; format: cell-based; conditions: Pichia kudriavzevii, read-out: MIC values CAKR7
Experimental: as §1, §2

[5] = test system: fluconazole-resistant C. krusei (CAKR8); assay: microbe, parasite or virus in culture; format: cell-based; conditions: Pichia kudriavzevii, read-out: MIC values CAKR8
Experimental: as §1, §2

[6] = test system: fluconazole-resistant C. parapsilosis s.l. (CAPA1); assay: microbe, parasite or virus in culture; format: cell-based; conditions: Lodderomyces parapsilosis, read-out: MIC values CAPA1
Experimental: as §1, §2

[7] = test system: fluconazole-resistant C. parapsilosis s.l. (CAPA2); assay: microbe, parasite or virus in culture; format: cell-based; conditions: Lodderomyces parapsilosis, read-out: MIC values CAPA2
Experimental: as §1, §2

[8] = test system: A. fumigatus susceptible strain ASFU76; assay: Antifungal susceptibility, spectrofluorimetric microdilution, ASFU76; format: cell-based, Aspergillus fumigatus; conditions: Aspergillus fumigatus, read-out: MIC values ASFU76
Experimental: (§3) Eleven strains of A. fumigatus with various itraconazole susceptibility were used: • Five susceptible strains: ASFU7, ASFU35A, ASFU38A, ASFU76 and ASFU78. • Six itraconazole-resistant strains: ASFU77 (erg11 mutation), ASFU13, ASFU17, ASFU19, ASFU20, ASFU23.
(§4) Antifungal susceptibility was evaluated with a spectrofluorimetric microdilution method. MIC was the concentration that was able to inhibit 80% of fluorescence measured in the control wells.

[9] = test system: A. fumigatus susceptible strain ASFU35A; assay: Antifungal susceptibility, spectrofluorimetric microdilution, ASFU35A; format: cell-based, Aspergillus fumigatus; conditions: Aspergillus fumigatus, read-out: MIC values ASFU35A
Experimental: as §3, §4

[10] = test system: A. fumigatus susceptible strain ASFU38A; assay: Antifungal susceptibility, spectrofluorimetric microdilution, ASFU38A; format: cell-based, Aspergillus fumigatus; conditions: Aspergillus fumigatus, read-out: MIC values ASFU38A
Experimental: as §3, §4

[11] = test system: A. fumigatus susceptible strain ASFU7; assay: Antifungal susceptibility, spectrofluorimetric microdilution, ASFU7; format: cell-based, Aspergillus fumigatus; conditions: Aspergillus fumigatus, read-out: MIC values ASFU7
Experimental: as §3, §4

[12] = test system: A. fumigatus susceptible strain ASFU78; assay: Antifungal susceptibility, spectrofluorimetric microdilution, ASFU78; format: cell-based, Aspergillus fumigatus; conditions: Aspergillus fumigatus, read-out: MIC values ASFU78
Experimental: as §3, §4

[13] = test system: A. fumigatus itraconazole-resistant strain ASFU77 (erg11 mutation); assay: Antifungal susceptibility, spectrofluorimetric microdilution, ASFU77; format: cell-based, Aspergillus fumigatus; conditions: for MIC: Aspergillus fumigatus, read-out: MIC values ASFU77
Experimental: as §3, §4

[14] = Cytotoxicity on HeLa cells; format: cell-based, Human; conditions: human, 50% inhibition of control fluorescence
Experimental: (§5) Hela Human cell line was used in view to evaluate cytotoxicity. It was evaluated with a spectrofluorimetric microdilution method. IC50 was the concentration that was able to inhibit 50% of fluorescence measured in the control wells.

[15] = test system: Candida albicans strain (CAAL93); assay: Murine systemic candidiasis; format: in vivo; conditions: neutropenic Swiss mice, CAAL93 i.v., 10 mg/kg per os once a day for 5 days; for survival compared with the non-treated group: 28 days (compound 51, 14 days); for survival compared with the non-treated group / activity on fungal burden of the kidney compared to FLC: p<0.05; for fungal burden of the kidney: p<0.05 (compound 51 p<0.001)
Experimental: (§6) Transiently neutropenic female Swiss mice were used for experiments on systemic candidiasis and invasive aspergillosis.
Mice were inoculated intravenously with a Candida albicans strain (CAAL93). Treatment was administrated once a day (10 mg/kg per os) for 5 days. […] Fungal burden of the kidney was evaluated in dead animals during the experimentation or in animals sacrificed at the end of the experimentation.

[16] = test system: Aspergillus fumigatus (ASFU7) spores; assay: Murine invasive aspergillosis; format: in vivo; conditions: neutropenic Swiss mice, ASFU7 spores i.v., 10 mg/kg per os once a day for 5 days
Experimental: as §6
Mice were inoculated intravenously with Aspergillus fumigatus (ASFU7) spores.
Treatment was administrated once a day (10 mg/kg per os) for 5 days. […] Fungal burden of the kidney was evaluated in dead animals during the experimentation or in animals sacrificed at the end of the experimentation.

[17] = test system: promastigote stage of a Leishmania mexicana strain; assay: Anti-Trypanosomatidae activity, promastigote stage, spectrofluorimetric microdilution; format: cell-based; conditions: for IC50: Leishmania mexicana, promastigote stage, 50% of control growth, read-out: L. mexicana (IC50 μM)
Experimental: Compounds were evaluated on the promastigote stage of a Leishmania mexicana strain using a spectrofluorimetric microdilution method. Inhibitory concentration 50 (IC50) was the concentration that inhibited 50% of the control growth.

Hela Human cell line = assay: Cytotoxicity on HeLa cells; format: cell-based; conditions: 100 μM
Experimental: as §5

[18] = test system: fluconazole-resistant C. albicans strain CAAL117 (erg11 mutations+voriconazole-resistant); assay: microbe, parasite or virus in culture; format: cell-based
Experimental: as §1, §2

[19] = test system: A. fumigatus itraconazole-resistant strain ASFU13; assay: Antifungal susceptibility, spectrofluorimetric microdilution, ASFU13; format: cell-based, Aspergillus fumigatus
Experimental: as §3, §4

[20] = test system: A. fumigatus itraconazole-resistant strain ASFU17; assay: Antifungal susceptibility, spectrofluorimetric microdilution, ASFU17; format: cell-based, Aspergillus fumigatus; conditions: Aspergillus fumigatus, read-out: MIC values ASFU17
Experimental: as §3, §4

[21] = test system: A. fumigatus itraconazole-resistant strain ASFU19; assay: Antifungal susceptibility, spectrofluorimetric microdilution, ASFU19; format: cell-based, Aspergillus fumigatus; conditions: Aspergillus fumigatus, read-out: MIC values ASFU19
Experimental: as §3, §4

[22] = test system: A. fumigatus itraconazole-resistant strain ASFU20; assay: Antifungal susceptibility, spectrofluorimetric microdilution, ASFU20; format: cell-based, Aspergillus fumigatus
Experimental: as §3, §4

[23] = test system: A. fumigatus itraconazole-resistant strain ASFU23; assay: Antifungal susceptibility, spectrofluorimetric microdilution, ASFU23; format: cell-based, Aspergillus fumigatus
Experimental: as §3, §4

CRL:(WI) rats = assay: Acute oral toxicity study in rats; format: in vivo
Experimental: The single-dose oral toxicity of compound 51 was performed according to the acute toxic class method (OECD 423 and Commission Regulation (EC) No 440/2008 of 30 May 2008, B.1.Tris) in CRL:(WI) rats.
Two groups of three female CRL:(WI) rats were treated with the test item at a dose level of 300 mg/kg bw (Group 1 and Group 2).
A single oral treatment was carried out by gavage for each animal after an overnight food withdrawal. Food was made available again 3 hours after the treatment. The test item was administered formulated in DMSO at a concentration of 30 mg/mL at a dose volume of 10 mL/kg bw.
Initially, three females (Group 1) were treated at a dose level of 300 mg/kg bw. As no mortality was observed, a confirmatory group (Group 2) was treated at the same dose level.
Clinical observations were performed at 30 minutes, 1, 2, 3, 4 and 6 hours after dosing and daily for 14 days thereafter. Body weight was measured on days −1, 0 and 7 and before necropsy. All animals were subjected to a necropsy and a macroscopic examination

| SMILES | MIC [1] [µg/mL] | MIC [2] [µg/mL] | MIC [3] [µg/mL] | MIC [4] [µg/mL] | MIC [5] [µg/mL] | MIC [6] [µg/mL] | MIC [7] [µg/mL] | MIC [8] [µg/mL] | MIC [9] [µg/mL] | MIC [10] [µg/mL] | MIC [11] [µg/mL] | MIC [12] [µg/mL] | MIC [13] [µg/mL] | survival efficiency compared with FLC [15] | survival compared with the non-treated group [15] | activity on fungal burden of the kidney compared to FLC [15] | fungal burden of the kidney [15] | effectiveness against the promastigote stage of L. Mexicana, in words [17] | IC50 [17] [µM] | cytotoxic effect at the higher concentration used (Hela Human cell line) | further results |
| --- | --- | --- | --- | --- | --- | --- | --- | --- | --- | --- | --- | --- | --- | --- | --- | --- | --- | --- | --- | --- | --- |
| C[C@@H](n1ccc2nc(-c3ccc(C#N)cc3)cn2c1=O)[C@](O)(Cn1cncn1)c1ccc(F)cc1F [Compound 34, 6-[(1R,2R)-2-(2,4-Difluorophenyl)-2-hydroxy-1-methyl-3-(1H-1,2,4-triazol-1-yl)propyl]-2-(4-cyanophenyl)imidazo[1,2-c]pyrimidin-5-one] | < 0.001 | 0.003 ± 0.001 (≈ 0.00615 µM) | 0.64 ± 0.27 (≈ 1.31 µM) | 0.45 ± 0.31 (≈ 0.923 µM) | 0.06 ± 0.01 (≈ 0.123 µM) | 0.002 ± 0.001 (≈ 0.0041 µM) | 0.002 ± 0.001 (≈ 0.0041 µM) | 6.44 ± 0.17 (≈ 13.2 µM) | 6.27 ± 0.3 (≈ 12.9 µM) | 12.6 ± 4.05 (≈ 25.9 µM) | 2.43 ± 0.19 (≈ 4.98 µM) | 5.98 ± 0.62 (≈ 12.3 µM) | 38.4 ± 13.1 (≈ 78.7 µM) | significantly more efficient than FLC | significant longer survival | significantly higher when compared to FLC | significantly decreased | effective | 2.8 ± 0.2 | – | IC50 [14]: 25 µM; survival ([16]; 14 days, p<0.01): did survive significantly longer; activity compared with compounds 29 and 35 ([16]; p<0.05): significantly more active than compounds 29 and 35; fungal burden of the kidney ([16]; p<0.05): significantly reduced |
| C[C@@H](n1ccc2nc(-c3ccc([N+](=O)[O-])cc3)cn2c1=O)[C@](O)(Cn1cncn1)c1ccc(F)cc1F [Compound 35, 6-[(1R,2R)-2-(2,4-Difluorophenyl)-2-hydroxy-1-methyl-3-(1H-1,2,4-triazol-1-yl)propyl]-2-(4-nitrophenyl)imidazo[1,2-c]pyrimidin-5-one] | < 0.001 | 0.007 ± 0.003 (≈ 0.0138 µM) | 0.2 ± 0.06 (≈ 0.394 µM) | – | 0.07 ± 0.01 (≈ 0.138 µM) | 0.011 ± 0.003 (≈ 0.0217 µM) | 0.004 ± 0.003 (≈ 0.00788 µM) | 7.45 ± 1 (≈ 14.7 µM) | 6.71 ± 0.06 (≈ 13.2 µM) | 25.6 ± 24.8 (≈ 50.5 µM) | 2.52 ± 0.05 (≈ 4.97 µM) | 6.19 ± 0.8 (≈ 12.2 µM) | 62.2 ± 2.92 (≈ 123 µM) | significantly more efficient than FLC | significant longer survival | significantly higher when compared to FLC | significantly decreased | effective | 11.4 ± 1.5 | didn't show any cytotoxic effect | – |
| COc1ccc(-c2cc3cnn([C@H](C)[C@](O)(Cn4cncn4)c4ccc(F)cc4F)c(=O)n3c2)cc1 [Compound 51, 3-[(1R,2R)-2-(2,4-Difluorophenyl)-2-hydroxy-1-methyl-3-(1,2,4-triazol-1-yl)propyl]-7-(4-methoxyphenyl)-3H-pyrrolo[1,2-d][1,2,4]triazin-4-one] | < 0.001 | < 0.001 | 0.017 ± 0.003 (≈ 0.0345 µM) | 0.062 ± 0.032 (≈ 0.126 µM) | 0.081 ± 0.009 (≈ 0.164 µM) | – | – | 6.52 ± 0.16 (≈ 13.2 µM) | 6.08 ± 0.29 (≈ 12.3 µM) | 5.84 ± 0.2 (≈ 11.9 µM) | 2.21 ± 0.09 (≈ 4.49 µM) | 6.01 ± 0.48 (≈ 12.2 µM) | 6.6 ± 0.24 (≈ 13.4 µM) | – | significant longer survival | – | most active | – | – | didn't show any cytotoxic effect | MIC ([18]; Candida albicans, read-out: MIC values CAAL117): 0.018 ± 0.002 µg/mL (≈ 0.0365 µM); fold more active than voriconazole against CAAL117 ([18]; compared with voriconazole): 100 fold; activity against ITRA-resistant isolate ASFU13, in words [19]: active; MIC ([19]; Aspergillus fumigatus, read-out: MIC values ASFU13): 2.03 µg/mL (≈ 4.12 µM); MIC [20]: > 49 µg/mL; MIC [21]: > 49 µg/mL; MIC values against ITRA-resistant isolate carrying M220T mutation (ASFU77), in words [13]: in the micromolar range; activity against ITRA-resistant isolate ASFU20, in words [22]: active; MIC ([22]; Aspergillus fumigatus, read-out: MIC values ASFU20): 3.14 µg/mL (≈ 6.38 µM); activity against ITRA-resistant isolate ASFU23, in words [23]: active; MIC ([23]; Aspergillus fumigatus, read-out: MIC values ASFU23): 1.92 µg/mL (≈ 3.9 µM); acute oral LD50 (CRL:(WI) rats; female CRL:(WI) rats, single oral gavage): above 300 mg/kg bw; GHS ranking for acute oral exposure (CRL:(WI) rats; female, CRL:(WI), rat, in vivo, po, 14 days): Category 4; body weight gains (CRL:(WI) rats; rat, in vivo, po, 300 mg/kg): no indication of a test item-related effect; clinical observations (CRL:(WI) rats; rat, in vivo, po, 300 mg/kg): hunched back and slightly decreased activity; mortality (CRL:(WI) rats; rat, in vivo, po, 300 mg/kg): did not cause mortality |
